Results: patent US10227331B2 (priority 2015, dated 2019)
pIC50: −log10 of the molar value.

Assays:
[1] = tested on: Serratia marcescens expressing IMP-1 (CL5741); format: cell-based; conditions: with imipenem 1 μg/ml; 95% inhibition of bacterial growth
How it was run: (§1)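 Restoration of imipenem susceptibility (1 μg/ml imipenem) was judged by absorbance after 22–24 h at 35° C. Test compound was added to bacteria suspended 1:100 in 1.1× CAMHB from overnight blood-agar cultures.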

[2] = tested on: Escherichia coli expressing NDM-1 (CLB30005, CLB30016); format: cell-based; conditions: with imipenem 1 μg/ml; 95% inhibition of bacterial growth
How it was run: as §1

[3] = tested on: Klebsiella pneumoniae expressing VIM-1 (IHMA599644); format: cell-based; conditions: with imipenem 1 μg/ml; 95% inhibition of bacterial growth
How it was run: as §1

IMP-1 = IMP-1 (Serratia marcescens, UniProt P52699); assay: biochemical; format: biochemical; conditions: CCF2-FA substrate, 2 hours at 25° C; read-out: IMP-1 IC50
How it was run: (§2)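 IC50 values derive from 4-parameter fits of percent inhibition against inhibitor concentration on semi-log axes. Activity was monitored by fluorescence with the CCF2-FA substrate after a 2-hour, 25° C incubation of compound, enzyme and substrate.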

NDM-1 = NDM-1 (Klebsiella pneumoniae, UniProt C7C422); assay: biochemical; format: biochemical; conditions: CCF2-FA substrate, 2 hours at 25° C; read-out: NDM-1 IC50
How it was run: as §2

VIM-1 = VIM-1 (Pseudomonas aeruginosa (strain ATCC 15692 / DSM 22644 / CIP 104116 / JCM 14847 / LMG 12228 / 1C / PRS 101 / PAO1), UniProt A0A0F7KYQ8); assay: biochemical; conditions: CCF2-FA substrate, 2 hours at 25° C
How it was run: as §2

[4] = tested on: P. aeruginosa expressing IMP-1, efflux+ (MB9798); format: cell-based, Pseudomonas aeruginosa; conditions: for P. aeruginosa expressing IMP-1, efflux+ (MB9798) MITC95: imipenem at 2 μg/mL, in the presence of a class A, C, D serine β-lactamase inhibitor closely related to relebactam; for Efflux ratio: ratio MITC95 PA_9798/MITC95 PA_9799
Excerpt: (§3) The strain background is Pseudomonas aeruginosa PAO1.

[5] = tested on: P. aeruginosa expressing IMP-1, efflux− (MB9799); assay: Efflux: concentration of MBL inhibitor which restores susceptibility to imipenem; format: cell-based, Pseudomonas aeruginosa; conditions: imipenem at 2 μg/mL, in the presence of a class A, C, D serine β-lactamase inhibitor closely related to relebactam
Excerpt: as §3

Sequence of NDM-1 (C7C422 whole entry, looked up, species assumed): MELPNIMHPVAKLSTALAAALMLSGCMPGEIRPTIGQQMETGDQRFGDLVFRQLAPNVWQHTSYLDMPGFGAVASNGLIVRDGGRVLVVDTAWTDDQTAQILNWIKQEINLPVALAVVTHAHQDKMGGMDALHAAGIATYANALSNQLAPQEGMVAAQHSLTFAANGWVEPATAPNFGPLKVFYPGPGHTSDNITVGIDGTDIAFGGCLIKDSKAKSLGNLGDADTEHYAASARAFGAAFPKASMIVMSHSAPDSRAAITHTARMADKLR
Sequence of IMP-1 (P52699 whole entry, looked up, species assumed): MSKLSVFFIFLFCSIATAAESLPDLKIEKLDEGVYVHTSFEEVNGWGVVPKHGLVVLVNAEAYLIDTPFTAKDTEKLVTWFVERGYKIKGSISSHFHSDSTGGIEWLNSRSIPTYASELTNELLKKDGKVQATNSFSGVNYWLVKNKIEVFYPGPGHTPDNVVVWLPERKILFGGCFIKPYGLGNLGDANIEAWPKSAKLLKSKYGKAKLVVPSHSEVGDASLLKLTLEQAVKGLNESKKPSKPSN

Structure (SMILES) | Serratia marcescens expressing IMP-1 (CL5741) MITC95 [1] | Escherichia coli expressing NDM-1 (CLB30016) MITC95 [2] | Klebsiella pneumoniae expressing VIM-1 (IHMA599644) MITC95 [3] | pIC50 (IMP-1) | pIC50 (NDM-1) | pIC50 (VIM-1) | P. aeruginosa expressing IMP-1, efflux+ (MB9798) MITC95 [4] | Efflux ratio [4] | P. aeruginosa expressing IMP-1, efflux− (MB9799) MITC95 [5]
Nc1nc2cccc(-c3ccc(S(=O)(=O)[C@H]4C[C@H](N)C4)c(S(N)(=O)=O)c3-c3nn[nH]n3)c2[nH]1 [Example 175, 3-(2-amino-3H-benzo[d]imidazol-4-yl)-6-((1r,3r)-3-aminocyclobutylsulfonyl)-2-(2H-tetrazol-5-yl)benzenesulfonamide] | 1.563 µM | 0.7813 µM | 1.563 µM | 8.66 | 9.83 | 9.32 | 0.7813 µM | 1.00 | 0.7813 µM
Nc1nc2cccc(-c3ccc(S(=O)(=O)[C@H]4C[C@@H](N)C4)c(S(N)(=O)=O)c3-c3nn[nH]n3)c2[nH]1 [Example 176, 3-(2-amino-3H-benzo[d]imidazol-4-yl)-6-((1s, 3s)-3-aminocyclobutylsulfonyl)-2-(2H-tetrazol-5-yl)benzenesulfonamide] | 0.7813 µM | 0.7813 µM | 1.563 µM | 8.96 | 9.60 | 9.08 | 0.7813 µM | 1.00 | 0.7813 µM
Nc1nc2cccc(-c3ccc(S(=O)(=O)[C@H]4CC[C@@H](N)CC4)c(S(N)(=O)=O)c3-c3nn[nH]n3)c2[nH]1 [Example 177, 3-(2-amino-3H-benzo[d]imidazol-4-yl)-6-((1s,4s)-4-aminocyclohexylsulfonyl)-2-(2H-tetrazol-5-yl)benzenesulfonamide] | 0.7813 µM | 0.7813 µM | 1.563 µM | 8.87 | 9.58 | 9.53 | 0.7813 µM | 1.00 | 0.7813 µM
Nc1nc2cccc(-c3ccc(S(=O)(=O)[C@H]4CC[C@H](N)CC4)c(S(N)(=O)=O)c3-c3nn[nH]n3)c2[nH]1 [Example 178, 3-(2-amino-3H-benzo[d]imidazol-4-yl)-6-((1r,4r)-4-aminocyclohexylsulfonyl)-2-(2H-tetrazol-5-yl)benzenesulfonamide] | 0.7813 µM | 0.3906 µM | 1.563 µM | 9.00 | 9.56 | 9.18 | 0.7813 µM | 1.00 | 0.7813 µM
Nc1nc2c(-c3ccc(S(=O)(=O)[C@H]4C[C@H](N)C4)c(S(N)(=O)=O)c3-c3nn[nH]n3)cccc2s1 [Example 179] | 1.563 µM | 0.7813 µM | 1.563 µM | 9.87 | 9.97 | 9.49 | 0.7813 µM | 0.50 | 1.563 µM
Nc1nc2c(-c3ccc(S(=O)(=O)[C@H]4C[C@@H](N)C4)c(S(N)(=O)=O)c3-c3nn[nH]n3)cccc2s1 [Example 180, 3-(2-aminobenzo[d]thiazol-4-yl)-6-((1s,3s)-3-aminocyclobutylsulfonyl)-2-(2H-tetrazol-5-yl)benzenesulfonamide] | 1.563 µM | 3.125 µM | 3.125 µM | 9.58 | 10.08 | 9.71 | 0.7813 µM | 1.00 | 0.7813 µM
Nc1nc2cccc(-c3ccc(S(=O)(=O)[C@@H]4CCNC4)c(S(N)(=O)=O)c3-c3nn[nH]n3)c2[nH]1 [Example 181, 3-(2-amino-3H-benzo[d]imidazol-4-yl)-6-((R)-pyrrolidin-3-ylsulfonyl)-2-(2H-tetrazol-5-yl)benzenesulfonamide] | 0.6875 µM | 0.3203 µM | 0.8542 µM | 9.09 | 9.83 | 9.38 | 0.6875 µM | 1.00 | 0.6875 µM
Nc1nc2cccc(-c3ccc(S(=O)(=O)[C@H]4CCNC4)c(S(N)(=O)=O)c3-c3nn[nH]n3)c2[nH]1 [Example 182, 3-(2-amino-3H-benzo[d]imidazol-4-yl)-6-((S)-pyrrolidin-3-ylsulfonyl)-2-(2H-tetrazol-5-yl)benzenesulfonamide] | 0.6406 µM | 0.25 µM | 0.8906 µM | 9.01 | 9.81 | 9.68 | 0.6406 µM | 1.00 | 0.6406 µM
Nc1nc2c(-c3ccc(S(=O)(=O)[C@@H]4CCNC4)c(S(N)(=O)=O)c3-c3nn[nH]n3)cccc2s1 [Example 183, 3-(2-aminobenzo[d]thiazol-4-yl)-6((R)-pyrrolidin-3-ylsulfonyl)-2-(2H-tetrazol-5-yl)benzenesulfonamide] | 1.563 µM | 0.7813 µM | 1.563 µM | 9.80 | 9.91 | 9.53 | 0.7813 µM | 1.00 | 0.7813 µM
Nc1nc2c(-c3ccc(S(=O)(=O)[C@H]4CCNC4)c(S(N)(=O)=O)c3-c3nn[nH]n3)cccc2s1 [Example 184, 3-(2-aminobenzo[d]thiazol-4-yl)-6-((S)-pyrrolidin-3-ylsulfonyl)-2-(2H-tetrazol-5-yl)benzenesulfonamide] | 0.7813 µM | 0.7813 µM | 1.563 µM | 9.61 | 10.03 | 9.58 | 0.7813 µM | 1.00 | 0.7813 µM
NS(=O)(=O)c1c(S(=O)(=O)[C@@H]2CCNC2)ccc(-c2cccc3cn[nH]c23)c1-c1nn[nH]n1 [Example 185, 3-(1H-indazol-7-yl)-6-((R)-pyrrolidin-3-ylsulfonyl)-2-(2H-tetrazol-5-yl)benzenesulfonamide] | 1.563 µM | 0.7813 µM | 3.125 µM | 9.33 | 9.18 | 9.26 | 1.563 µM | 2.00 | 0.7813 µM
NS(=O)(=O)c1c(S(=O)(=O)[C@H]2CCNC2)ccc(-c2cccc3cn[nH]c23)c1-c1nn[nH]n1 [Example 186, 3-(1H-indazol-7-yl)-6-((S)-pyrrolidin-3-ylsulfonyl)-2-(2H-tetrazol-5-yl)benzenesulfonamide] | 1.563 µM | 1.563 µM | 1.563 µM | 9.27 | 9.61 | 9.64 | 1.563 µM | 2.00 | 0.7813 µM
Cc1ccc(-c2ccc(S(=O)(=O)[C@@H]3CCNC3)c(S(N)(=O)=O)c2-c2nn[nH]n2)c2nc(N)sc12 [Example 187, 3-(2-amino-7-methylbenzo[d]thiazol-4-yl)-6-((R)-pyrrolidin-3-ylsulfonyl)-2-(2H-tetrazol-5-yl)benzenesulfonamide] | 0.7813 µM | 0.7813 µM | 1.563 µM | 10.12 | 10.16 | 9.80 | 1.563 µM | 2.00 | 0.7813 µM
